Measured values: patent EP4656642A1, “ESTROGEN RECEPTOR PROTEOLYSIS TARGETING CHIMERA COMPOUND AND USE THEREOF” (GAN & LEE PHARM CO., LTD, priority 2023, dated 2024)

Assays:
Format in all cases: cell-based
[1] = target: T1, ERα (Homo sapiens, UniProt P03372); assay: Degradation of ERα in MCF-7 cells (immunoblotting, 4 h)
T1 sequence (P03372 1-595): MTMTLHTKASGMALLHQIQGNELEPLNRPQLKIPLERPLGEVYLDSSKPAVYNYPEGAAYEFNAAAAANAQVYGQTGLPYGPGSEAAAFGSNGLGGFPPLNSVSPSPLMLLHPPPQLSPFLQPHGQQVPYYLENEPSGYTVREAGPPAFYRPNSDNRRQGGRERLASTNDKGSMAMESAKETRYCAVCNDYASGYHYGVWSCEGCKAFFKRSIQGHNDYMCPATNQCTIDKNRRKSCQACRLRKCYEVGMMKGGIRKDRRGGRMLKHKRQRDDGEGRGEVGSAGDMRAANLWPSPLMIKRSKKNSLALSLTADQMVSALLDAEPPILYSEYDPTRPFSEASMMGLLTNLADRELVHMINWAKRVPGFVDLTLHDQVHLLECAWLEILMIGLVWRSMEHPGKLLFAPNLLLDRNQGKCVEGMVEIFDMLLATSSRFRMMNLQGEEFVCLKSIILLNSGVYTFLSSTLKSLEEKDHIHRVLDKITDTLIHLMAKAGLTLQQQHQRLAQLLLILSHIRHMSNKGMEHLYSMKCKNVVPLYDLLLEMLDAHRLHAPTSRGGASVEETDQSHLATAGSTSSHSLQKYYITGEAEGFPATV
Procedure, shortened: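 Degradation rate reflects ERα band intensity, corrected to an internal reference protein, relative to control. Values come from Western blotting of lysates from MCF-7 cells exposed 4 h at 37°C to compounds at final concentrations of 0.15-1000nM.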

[2] = test system: MCF-7 cells; assay: Inhibition of cell proliferation of MCF-7 cells (CCK-8, 9 days); details: treated for 9 days, CCK-8 kit (Table 6)
Procedure, shortened: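 Read-out was CCK-8 viability after 9-day continuous exposure (37°C, 5% CO2) of MCF-7 cells plated at 800/well in 10% FBS DMEM across several compound concentrations. Values are proliferation IC50s.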

[3] = target: T1, ERα; assay: Degradation of ERα in T-47D cells (immunoblotting, 4 h); parameters: host or cells: T-47D
Procedure, shortened: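 ERα protein levels were assessed by immunoblot of RIPA lysates (with protease inhibitor) after 4 h exposure at 37°C. Compound was added in DMSO to T-47D cells at final concentrations of 0.15-1000 nM.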

Row | SMILES | Degradation rate (%) of ERα in MCF-7 cells ([1]; 1nM compound) | Degradation rate (%) of ERα in MCF-7 cells ([1]; 10nM compound) | IC50 [2] | Degradation rate (%) of ERα in T-47D cells ([3]; 1nM compound) | Degradation rate (%) of ERα in T-47D cells ([3]; 10nM compound)
1 | C[C@@H]1Cc2c(ccc3[nH]ncc23)C(c2c(F)cc(N3CCC4(CCC(N5CCC6(CC5)COc5c6ccc6c5CN(C5CCC(=O)NC5=O)C6=O)CC4)CC3)cc2F)N1CC(F)F (some centres unmarked) [G20] | 22% | 45% | 49.7 nM | 51% | 69%
2 | C[C@@H]1Cc2cc(O)ccc2[C@@H](c2c(F)cc(N3CCC(C(=O)N4CCC(N5CCC6(CC5)COc5c6ccc6c5CN(C5CCC(=O)NC5=O)C6=O)CC4)CC3)cc2F)N1CC(F)F (some centres unmarked) [I2] | 63% | 61% | 11.7 nM | 56% | 55%
3 | O=C1CCC(N2Cc3c(ccc4c3OCC43CCN(C[C@H]4CC[C@@H](OC5CCN(c6ccc([C@@H]7c8ccc(O)cc8CC[C@@H]7c7ccccc7)cc6)CC5)CC4)CC3)C2=O)C(=O)N1 (some centres unmarked) [G25] | 10% | 77% | 8.97 nM | 49% | 79%
4 | O=C1CCC(N2Cc3cc4c(cc3C2=O)C2(CCN(CC3CCN(c5ccc([C@@H]6c7ccc(O)cc7CC[C@@H]6c6ccccc6)cc5)CC3)CC2)CO4)C(=O)N1 (some centres unmarked) [H6] | -6% | 7% | 4170 nM | -35% | -32%
5 | O=C1CCC(N2Cc3cc4c(cc3C2=O)OC2(CC4)CN(C(=O)CN3CCC4(CC3)CCN(c3ccc([C@@H]5c6ccc(O)cc6CC[C@@H]5c5ccccc5)cc3)CC4)C2)C(=O)N1 (some centres unmarked) [A70] | 18% | 71% | 41.9 nM | 40% | 75%
6 | CN(C(=O)CN1CCC2(CC1)COc1cc3c(cc12)CN(C1CCC(=O)NC1=O)C3=O)C1CCC2(CC1)CN(c1ccc([C@@H]3c4ccc(O)cc4CC[C@@H]3c3ccccc3)cc1)C2 (some centres unmarked) [H56] | -5% | 21% | 2250 nM | 24% | 47%
7 | O=C1CCC(N2Cc3c(ccc4c3OCC43CCN(C4CCN(C(=O)C5CCC6(CC5)CN(c5ccc([C@@H]7c8ccc(O)cc8CC[C@@H]7c7ccccc7)cc5)C6)CC4)CC3)C2=O)C(=O)N1 (some centres unmarked) [A84] | 63% | 74% | 5.26 nM | 56% | 77%
8 | O=C1CCC(N2Cc3c(ccc4c3OCC43CCN(C4CC5(CCN(C6CCN(c7ccc([C@@H]8c9ccc(O)cc9CC[C@@H]8c8ccccc8)cc7)CC6)CC5)C4)CC3)C2=O)C(=O)N1 (some centres unmarked) [K4] | 48% | 53% | < 0.256 nM | 42% | 72%
9 | O=C1CCC(N2Cc3cc4c(cc3C2=O)OC2(CC4)CN(C(=O)CN3CCC4(CCN(c5ccc([C@@H]6c7ccc(O)cc7CC[C@@H]6c6ccccc6)cc5)CC4)C3)C2)C(=O)N1 (some centres unmarked) [A77] | 29% | 61% | 52100 nM | 54% | 78%
10 | O=C1CCC(N2Cc3c(ccc4c3OCC43CCN(C(=O)CN4CCN(C(=O)C5CCN(c6ccc([C@@H]7c8ccc(O)cc8CC[C@@H]7c7ccccc7)cc6)CC5)CC4)CC3)C2=O)C(=O)N1 (some centres unmarked) [K43] | 23% | 69% | 3070 nM | 66% | 84%
11 | O=C1CCC(N2Cc3c(ccc4c3OCC43CCN(C4CC5(C4)CN(C4CCN(c6ccc([C@@H]7c8ccc(O)cc8CC[C@@H]7c7ccccc7)cc6)CC4)C5)CC3)C2=O)C(=O)N1 (some centres unmarked) [K12] | 3% | 44% | 30 nM | 18% | 60%
12 | O=C1CCC(N2Cc3c(ccc4c3OCC43CCN(C(=O)[C@H]4CC[C@H](OC5CCN(c6ccc([C@@H]7c8ccc(O)cc8CC[C@@H]7c7ccccc7)cc6)CC5)CC4)CC3)C2=O)C(=O)N1 (some centres unmarked) [D8] | 9% | 62% | 11400 nM | 33% | 75%
13 | O=C1CCC(N2Cc3c(ccc4c3OCC43CCN(C(=O)C4CCN(CC5CCN(c6ccc([C@@H]7c8ccc(O)cc8CC[C@@H]7c7ccccc7)cc6)CC5)CC4)CC3)C2=O)C(=O)N1 (some centres unmarked) [K34] | 75% | 76% | 10.5 nM | 76% | 86%
14 | O=C1CCC(N2Cc3c(ccc4c3OCC43CCN(C(=O)CN4CCC(Oc5ccc([C@@H]6c7ccc(O)cc7CC[C@@H]6c6ccccc6)cc5)CC4)CC3)C2=O)C(=O)N1 (some centres unmarked) [H60] | 38% | 35% | 106 nM | 41% | 37%
15 | CN(CC(=O)N1CCC2(CC1)COc1c2ccc2c1CN(C1CCC(=O)NC1=O)C2=O)C1CCC2(CC1)CCN(c1ccc([C@@H]3c4ccc(O)cc4CC[C@@H]3c3ccccc3)cc1)CC2 (some centres unmarked) [H51] | 46% | 75% | 153 nM | 49% | 79%
16 | O=C1CCC(N2Cc3c(ccc4c3OCC43CCN(C4CCN(S(=O)(=O)C5CCN(c6ccc([C@@H]7c8ccc(O)cc8CC[C@@H]7c7ccccc7)cc6)CC5)CC4)CC3)C2=O)C(=O)N1 (some centres unmarked) [A122] | 40% | 51% | 14800 nM | 56% | 65%
17 | O=C1CCC(N2Cc3c(ccc4c3OCC43CCN(CC(=O)N4CCC5(CCC(C#Cc6ccc([C@@H]7c8ccc(O)cc8CC[C@@H]7c7ccccc7)cc6)CC5)CC4)CC3)C2=O)C(=O)N1 (some centres unmarked) [B29] | 7% | 16% | 224 nM | -11% | 14%
18 | O=C1CCC(N2Cc3c(ccc4c3OC3(CC4)CCN(C4CCC5(CC4)CCN(c4ccc([C@@H]6c7ccc(O)cc7CC[C@@H]6c6ccccc6)cc4)CC5)CC3)C2=O)C(=O)N1 (some centres unmarked) [L20] | -12% | 6% | 2190 nM | 28% | 41%
19 | O=C1CCC(N2Cc3c(ccc4c3OCC43CCN(C4CCC(OC5CCN(c6ccc([C@@H]7c8ccc(O)cc8CC[C@@H]7c7ccccc7)cc6)CC5)CC4)CC3)C2=O)C(=O)N1 (some centres unmarked) [K50] | 19% | 72% | 83.3 nM | 52% | 84%
